From patent publication US20260069601A1, “PHARMACEUTICAL COMPOSITION FOR INHALATION FOR PREVENTING OR TREATING RESPIRATORY DISEASE” (LEXENPHARM (SUZHOU) LIMITED, priority 2022, published 2026)

Assay: Stability test of indacaterol maleate-glycopyrronium bromide compositions at different pH (Example 7)
Assay type: physicochemical
Settings: 4 weeks at 60° C.
Protocol: The soft mist solutions of indatarol indacaterol maleate and glycopyrronium bromide at different pH were prepared as follows. Six 0.02 mM citric acid solution each 500 mL were prepared. pH was adjusted to 2.5, 3.0, 3.5, 4.0, 4.5, and 5.0 with 1 M (mol/L) of sodium hydroxide solution. Indacaterol maleate and glycopyrronium bromide were added. In order to improve the dissolution of indacaterol, all the drug solutions were ultrasonicated in a water bath at 30° C. for 20 min until no visible particles were found.
The drug solutions were placed in glass bottles and stability test was performed to determine the contents of indacaterol and glycopyrronium bromide and total impurities in the samples at the initial state and after 4 weeks at 60° C.

CCc1cc2c(cc1CC)CC(NC[C@H](O)c1ccc(O)c3[nH]c(=O)ccc13)C2 [Indacaterol, indacaterol]
optimal (best) pH for stability: 3.5

C[N+]1(C)CCC(OC(=O)C(O)(c2ccccc2)C2CCCC2)C1 (centres unmarked) [glycopyrronium bromide]
pH at which the active ingredient is stable: 2.5-3.5
